Experimental findings from PubChem BioAssay AID330 (DTP/NCI, 2004) are described below.

Where “and” joins values, the source holds several entries; their conditions need not be identical. Equal values may be shown once. Inconclusive results and toxic doses are left out. Square brackets hold non-standard residues; d marks the D form. Peptide text beside a SMILES is read from it. Ac5c = NC1(C(=O)O)CCCC1

For the experiment, the system named is P388 leukemia ip, CD2F1 mice, survival T/C. The experiment is described as follows: NCI In Vivo Anticancer Drug Screen. Data for tumor model P388 Leukemia (intraperitoneal) in CD2F1 (CDF1) mice. As to conditions: endpoint: median survival time, higher = longer survival. A digest of the protocol:
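Mice carrying the transplanted tumor received test compound or vehicle. Survival was recorded in each group, and the value is the treated-group measurement divided by that of the vehicle-treated control group.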

[1] abbreviates: dose: 50.0 mg/kg/injection, schedule: Q01DX009 (ip), vehicle: Klucel (hydroxypropylcellulose) (HPC).
Where [2] appears, read: dose: 50.0 mg/kg/injection, schedule: Q01DX005 (ip), vehicle: Klucel (hydroxypropylcellulose) (HPC).
Where [3] appears, read: dose: 100.0 mg/kg/injection, schedule: Q01DX005 (ip), vehicle: Klucel (hydroxypropylcellulose) (HPC).
[4] abbreviates: dose: 200.0 mg/kg/injection, schedule: Q01DX005 (ip), vehicle: Klucel (hydroxypropylcellulose) (HPC).
[5] abbreviates: dose: 100.0 mg/kg/injection, schedule: Q01DX009 (ip), vehicle: saline with Tween-80.
Setting [6] is: dose: 50.0 mg/kg/injection, schedule: Q01DX005 (ip), vehicle: saline with Tween-80.
Where [7] appears, read: dose: 100.0 mg/kg/injection, schedule: Q01DX005 (ip), vehicle: saline with Tween-80.
Where [8] appears, read: dose: 200.0 mg/kg/injection, schedule: Q01DX005 (ip), vehicle: saline with Tween-80.
Where [9] appears, read: dose: 50.0 mg/kg/injection, schedule: Q01DX005 (ip), vehicle: saline.
Setting [10] is: dose: 100.0 mg/kg/injection, schedule: Q01DX005 (ip), vehicle: saline.
The mark [11] stands for this setting: dose: 100.0 mg/kg/injection, schedule: Q04DX002 (ip), vehicle: saline with Tween-80.
[12] abbreviates: dose: 200.0 mg/kg/injection, schedule: Q01DX005 (ip), vehicle: saline.
Setting [13] is: dose: 200.0 mg/kg/injection, schedule: Q04DX002 (ip), vehicle: saline with Tween-80.
[14] abbreviates: dose: 400.0 mg/kg/injection, schedule: Q04DX002 (ip), vehicle: saline with Tween-80.
The mark [15] stands for this setting: dose: 60.0 mg/kg/injection, schedule: Q01DX005 (ip), vehicle: saline with Tween-80.
[16] abbreviates: dose: 120.0 mg/kg/injection, schedule: Q01DX005 (ip), vehicle: saline with Tween-80.
Where [17] appears, read: dose: 240.0 mg/kg/injection, schedule: Q01DX005 (ip), vehicle: saline with Tween-80.
The mark [18] stands for this setting: dose: 50.0 mg/kg/injection, schedule: Q01DX009 (ip), vehicle: saline with Tween-80.
Setting [19] is: dose: 100.0 mg/kg/injection, schedule: Q01DX009 (ip), vehicle: Klucel (hydroxypropylcellulose) (HPC).
[20] abbreviates: dose: 200.0 mg/kg/injection, schedule: Q01DX009 (ip), vehicle: Klucel (hydroxypropylcellulose) (HPC).

With `CC1CCC23COC(=O)C2=CCCC3C12CC(c1ccoc1)OC2=O` (stereo unspecified), the T/C is, setting by setting: (dose: 0.03 mg/kg/injection, schedule: Q01DX009 (ip), vehicle: saline) 107 % of control; (dose: 0.06 mg/kg/injection, schedule: Q01DX009 (ip), vehicle: saline) 104 % of control; (dose: 0.12 mg/kg/injection, schedule: Q01DX009 (ip), vehicle: saline) 107 % of control; (dose: 0.24 mg/kg/injection, schedule: Q01DX009 (ip), vehicle: saline) 103 % of control; (dose: 0.5 mg/kg/injection, schedule: Q01DX009 (ip), vehicle: Klucel (hydroxypropylcellulose) (HPC)) 96 % of control; (dose: 1.0 mg/kg/injection, schedule: Q01DX009 (ip), vehicle: Klucel (hydroxypropylcellulose) (HPC)) 96 % of control. The T/C (dose: 2.0 mg/kg/injection, schedule: Q01DX009 (ip), vehicle: Klucel (hydroxypropylcellulose) (HPC)) is 98 % of control.
As for `CCN(CC)Sc1cccc([N+](=O)[O-])c1`, the T/C by setting is: (dose: 12.5 mg/kg/injection, schedule: Q01DX009 (ip), vehicle: Klucel (hydroxypropylcellulose) (HPC)) 108 % of control; (dose: 25.0 mg/kg/injection, schedule: Q01DX009 (ip), vehicle: Klucel (hydroxypropylcellulose) (HPC)) 118 % of control; under setting [1], 113 % of control and 119 % of control.
`Cn1c([N+](=O)[O-])cnc1CSc1ccc(C#N)cc1`: the T/C is, setting by setting: (dose: 25.0 mg/kg/injection, schedule: Q01DX005 (ip), vehicle: Klucel (hydroxypropylcellulose) (HPC)) 105 % of control; under setting [2], 104 % of control; under setting [3], 92 % of control; under setting [4], 114 % of control.
On to `Nc1n[nH]c(N)n1`, for which the T/C is, setting by setting: under setting [5], 109 % of control; (dose: 800.0 mg/kg/injection, schedule: Q01DX009 (ip), vehicle: saline with Tween-80) 163 % of control.
On to `CNC(=S)N\N=C/C(/C=C/c1ccccc1)=N\NC(=S)NC`, for which the T/C is 90 % of control (dose: 100.0 mg/kg/injection, schedule: Q01DX001 (ip), vehicle: Klucel (hydroxypropylcellulose) (HPC)) and 100 % of control (dose: 200.0 mg/kg/injection, schedule: Q01DX001 (ip), vehicle: Klucel (hydroxypropylcellulose) (HPC)).
Regarding `COc1ccc(/C(C#N)=C/c2cc(OC)c(OC)c(OC)c2)cc1`, the T/C is 105 % of control under setting [2], 97 % of control under setting [3] and 101 % of control under setting [4].
As to `CCOC(=O)c1oc2ccccc2c1CN(CCO)CCO`, the T/C under setting [6] was 98 % of control, the T/C under setting [7] was 100 % of control and the T/C under setting [8] was 105 % of control.
Regarding `O=C(Nc1cc(Nc2ccc(NC(=O)c3ccccc3)c3c2C(=O)c2ccccc2C3=O)cc2c1C(=O)c1ccccc1C2=O)c1ccccc1`, the T/C under setting [2] is 103 % of control, the T/C under setting [3] is 103 % of control and the T/C under setting [4] was 97 % of control.
With `NC(CCP(=O)(O)O)C(=O)O` (stereo unspecified), the T/C was 107 % of control under setting [9]; 97 % of control under setting [10]; 100 % of control under setting [11]; 92 % of control under setting [12]; 87 % of control under setting [13]; 89 % of control under setting [14].
As for `O=C1NC(=O)C2(N1)C1CCCC2C(c2ccccc2)NC1c1ccccc1` (stereo unspecified), the T/C by setting is: under setting [15], 96 % of control; under setting [16], 91 % of control; under setting [17], 90 % of control.
Turning to `O=C1c2ccccc2C(=O)c2c1oc1c2ccc2ccccc21`, the T/C by setting is: (dose: 12.5 mg/kg/injection, schedule: Q01DX009 (ip), vehicle: saline with Tween-80) 98 % of control; (dose: 25.0 mg/kg/injection, schedule: Q01DX009 (ip), vehicle: saline with Tween-80) 92 % of control; under setting [18], 99 % of control; under setting [5], 87 % of control.
Regarding `CCN(CC)CCN1C(=O)NC2(CCCCC2)C1=O`, the T/C by setting is: under setting [15], 101 % of control; under setting [16], 100 % of control; under setting [17], 99 % of control.
For `NC1CCC(O)CC1C(=O)O` (stereo unspecified), the T/C was 99 % of control under setting [6], 103 % of control under setting [7] and 86 % of control under setting [8].
Take `CC(=O)NC(CCC(C)(C)SCc1ccccc1)C(=O)O` (stereo unspecified): the T/C under setting [18] is 91 % of control; the T/C under setting [5] was 94 % of control; the T/C (dose: 200.0 mg/kg/injection, schedule: Q01DX009 (ip), vehicle: saline with Tween-80) is 103 % of control.
Turning to `Nc1nc(=S)c2[nH]c(N=Nc3ccc(S(=O)(=O)O)cc3)nc2[nH]1`, under “dose: 6.25 mg/kg/injection, schedule: Q04DX003 (ip), vehicle: saline”, the T/C is 123 % of control.
Regarding `NC1C(NO)OC(CO)C(O)C1O` (stereo unspecified), the T/C reads like this: under setting [9], 97 % of control; under setting [10], 96 % of control; under setting [12], 97 % of control.
Take `COc1ccc2c(c1)CCC1=C2P(C)(=S)CC1` (stereo unspecified): the T/C is, setting by setting: under setting [1], 101 % of control; under setting [19], 104 % of control; under setting [20], 106 % of control.
On to `COC1=C(OC)C(=O)C(SC/C=C(\C)CCCC(C)CCCC(C)CCCC(C)C)=CC1=O` (stereo unspecified), for which, where the note is “dose: 6.25 mg/kg/injection, schedule: Q01DX009 (ip), vehicle: saline with Tween-80”, the T/C was 105 % of control and 106 % of control and 113 % of control.
Take `CCCCCNC(=O)CCC(NC(=O)c1ccc(N(C)Cc2cnc3nc(N)nc(N)c3n2)cc1)C(=O)O` (stereo unspecified): the T/C reads like this: (dose: 200.0 mg/kg/injection, schedule: Q01DX009 (ip), vehicle: sodium bicarbonate) 155 % of control; (dose: 400.0 mg/kg/injection, schedule: Q01DX009 (ip), vehicle: sodium bicarbonate) 91 % of control.
With `O=C(NC(Cc1ccc(O)cc1)C(=O)O)C(=O)c1c[nH]c2ccc([N+](=O)[O-])cc12` (stereo unspecified), the T/C is, setting by setting: under setting [15], 97 % of control; under setting [16], 97 % of control; under setting [17], 89 % of control.
On to `NC1(C(=O)NCC(=O)O)CCCC1` (H-[Ac5c]-Gly-OH), for which the T/C by setting is: (dose: 50.0 mg/kg/injection, schedule: Q04DX003 (ip), vehicle: Klucel (hydroxypropylcellulose) (HPC)) 99 % of control; (dose: 100.0 mg/kg/injection, schedule: Q04DX003 (ip), vehicle: Klucel (hydroxypropylcellulose) (HPC)) 99 % of control; (dose: 200.0 mg/kg/injection, schedule: Q04DX003 (ip), vehicle: Klucel (hydroxypropylcellulose) (HPC)) 97 % of control; (dose: 400.0 mg/kg/injection, schedule: Q04DX003 (ip), vehicle: Klucel (hydroxypropylcellulose) (HPC)) 112 % of control.
`CC12CCC3C(C1)C(C(=O)O2)C(=O)OC3(C)C` (stereo unspecified): the T/C is, setting by setting: under setting [1], 93 % of control; under setting [19], 101 % of control; under setting [20], 97 % of control.
`OCC(O)C1OC(c2ccccc2)OC2COC(c3ccccc3)OC21` (stereo unspecified): the T/C under setting [11] was 97 % of control, the T/C under setting [13] was 86 % of control and the T/C under setting [14] was 89 % of control.
As to `O=C(CBr)N1c2ccccc2S(=O)(=O)c2ccc3ccccc3c21`, the T/C runs as follows: under setting [1], 116 % of control and 122 % of control; under setting [20], 119 % of control.
For the compound `Nc1cc2c(cc1C(=O)N1CCc3ccccc31)OCO2`, the T/C reads like this: (dose: 25.0 mg/kg/injection, schedule: Q01DX009 (ip), vehicle: other) 106 % of control; (dose: 50.0 mg/kg/injection, schedule: Q01DX009 (ip), vehicle: other) 100 % of control; (dose: 100.0 mg/kg/injection, schedule: Q01DX009 (ip), vehicle: other) 97 % of control; (dose: 200.0 mg/kg/injection, schedule: Q01DX009 (ip), vehicle: other) 90 % of control.
`CCN(CC)CCOC(=O)C1c2ccccc2-c2ccccc21`: the T/C runs as follows: (dose: 50.0 mg/kg/injection, schedule: Q01DX005 (ip), vehicle: saline + Tween-80 + alcohol) 99 % of control; (dose: 100.0 mg/kg/injection, schedule: Q01DX005 (ip), vehicle: saline + Tween-80 + alcohol) 95 % of control; (dose: 200.0 mg/kg/injection, schedule: Q01DX005 (ip), vehicle: saline + Tween-80 + alcohol) 103 % of control.
